The values below come from PubChem BioAssay AID330 (DTP/NCI, 2004).

Structures are written as SMILES. Several values for one entry are separate records, joined by “and”; a condition that tells them apart may be missing. Equal entries are not always repeated. Inconclusive results and toxic doses are left out.

The test system of the assay is P388 leukemia ip, CD2F1 mice, survival T/C. Briefly: NCI In Vivo Anticancer Drug Screen. Data for tumor model P388 Leukemia (intraperitoneal) in CD2F1 (CDF1) mice. To be noted: higher = longer survival. The procedure, abridged:
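Mice carrying the transplanted tumor received test compound or vehicle. Survival was recorded in each group, and the value is the treated-group measurement divided by that of the vehicle-treated control group.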

Where [1] appears, read: endpoint: median survival time, dose: 50.0 mg/kg/injection, schedule: Q01DX005 (ip), vehicle: Klucel (hydroxypropylcellulose) (HPC).
The mark [2] stands for this setting: endpoint: median survival time, dose: 100.0 mg/kg/injection, schedule: Q01DX005 (ip), vehicle: Klucel (hydroxypropylcellulose) (HPC).
Where [3] appears, read: endpoint: median survival time, dose: 200.0 mg/kg/injection, schedule: Q01DX005 (ip), vehicle: Klucel (hydroxypropylcellulose) (HPC).
The mark [4] stands for this setting: endpoint: median survival time, dose: 60.0 mg/kg/injection, schedule: Q01DX005 (ip), vehicle: saline.
Setting [5] is: endpoint: median survival time, dose: 120.0 mg/kg/injection, schedule: Q01DX005 (ip), vehicle: saline.
Setting [6] is: endpoint: median survival time, dose: 240.0 mg/kg/injection, schedule: Q01DX005 (ip), vehicle: saline.
The mark [7] stands for this setting: endpoint: median survival time, dose: 50.0 mg/kg/injection, schedule: Q01DX009 (ip), vehicle: saline with Tween-80.
Where [8] appears, read: endpoint: median survival time, dose: 100.0 mg/kg/injection, schedule: Q01DX009 (ip), vehicle: saline with Tween-80.
[9] abbreviates: endpoint: median survival time, dose: 100.0 mg/kg/injection, schedule: Q04DX003 (ip), vehicle: saline with Tween-80.
[10] abbreviates: endpoint: median survival time, dose: 200.0 mg/kg/injection, schedule: Q01DX009 (ip), vehicle: saline with Tween-80.
[11] abbreviates: endpoint: median survival time, dose: 200.0 mg/kg/injection, schedule: Q04DX003 (ip), vehicle: saline with Tween-80.
[12] abbreviates: endpoint: median survival time, dose: 400.0 mg/kg/injection, schedule: Q01DX009 (ip), vehicle: saline with Tween-80.
Setting [13] is: endpoint: median survival time, dose: 60.0 mg/kg/injection, schedule: Q01DX005 (ip), vehicle: Klucel (hydroxypropylcellulose) (HPC).
The mark [14] stands for this setting: endpoint: median survival time, dose: 120.0 mg/kg/injection, schedule: Q01DX005 (ip), vehicle: Klucel (hydroxypropylcellulose) (HPC).
Setting [15] is: endpoint: median survival time, dose: 240.0 mg/kg/injection, schedule: Q01DX005 (ip), vehicle: Klucel (hydroxypropylcellulose) (HPC).

As for `C[N+](c1ccc(Cl)cc1)=S(C)(C)=O`, the T/C is 99 % of control (endpoint: median survival time, dose: 6.25 mg/kg/injection, schedule: Q01DX009 (ip), vehicle: saline); 94 % of control (endpoint: median survival time, dose: 12.5 mg/kg/injection, schedule: Q01DX009 (ip), vehicle: saline); 98 % of control (endpoint: median survival time, dose: 25.0 mg/kg/injection, schedule: Q01DX009 (ip), vehicle: saline).

On to `CC(C)=CCC(OC(=O)C=C(C)C)c1cc(O)c2c(O)ccc(O)c2c1O.[Mn]` (stereo not given), for which the T/C by setting is: (endpoint: median survival time, dose: 25.0 mg/kg/injection, schedule: Q01DX001 (ip), vehicle: saline with Tween-80) 111 % of control; (endpoint: median survival time, dose: 50.0 mg/kg/injection, schedule: Q01DX001 (ip), vehicle: saline with Tween-80) 108 % of control; (endpoint: median survival time, dose: 100.0 mg/kg/injection, schedule: Q01DX001 (ip), vehicle: saline with Tween-80) 111 % of control and 124 % of control; (endpoint: median survival time, dose: 200.0 mg/kg/injection, schedule: Q01DX001 (ip), vehicle: saline with Tween-80) 124 % of control.

Turning to `[CH3][Ge]([CH3])[c]1ccccc1`, the T/C (endpoint: median survival time, dose: 50.0 mg/kg/injection, schedule: Q01DX009 (ip), vehicle: saline) was 101 % of control and the T/C (endpoint: median survival time, dose: 100.0 mg/kg/injection, schedule: Q01DX009 (ip), vehicle: saline) was 95 % of control.

Consider `O=c1[nH]cnc(O)c1C1C=CC=CC=C1`, for which the T/C is, setting by setting: under setting [1], 105 % of control; under setting [2], 114 % of control.

Consider `Cc1nn2c(=O)c3c([N+](=O)[O-])c(C)nn3c(=O)c2c1[N+](=O)[O-]`, for which the T/C runs as follows: under setting [1], 105 % of control; under setting [2], 97 % of control; under setting [3], 100 % of control.

With `CS(=O)(=O)OCCCN(CCCOS(C)(=O)=O)CCCN1CCOCC1`, the T/C is, setting by setting: (endpoint: mean survival time, dose: 20.0 mg/kg/injection, schedule: Q01DX009 (ip), vehicle: saline) 247 % of control; (endpoint: mean survival time, dose: 40.0 mg/kg/injection, schedule: Q01DX009 (ip), vehicle: saline) 238 % of control; (endpoint: mean survival time, dose: 60.0 mg/kg/injection, schedule: Q01DX009 (ip), vehicle: saline) 263 % of control; (endpoint: median survival time, dose: 20.0 mg/kg/injection, schedule: Q01DX009 (ip), vehicle: saline) 227 % of control; (endpoint: median survival time, dose: 40.0 mg/kg/injection, schedule: Q01DX009 (ip), vehicle: saline) 222 % of control; (endpoint: median survival time, dose: 60.0 mg/kg/injection, schedule: Q01DX009 (ip), vehicle: saline) 254 % of control.

Turning to `O=C1c2ccccc2C(=O)c2c(O)c(O)cc(O)c21`, the T/C is, setting by setting: under setting [4], 94 % of control; under setting [5], 91 % of control; under setting [6], 94 % of control.

`CC(C)(C)C1CCC(C(=O)O)CC1` (stereo not given): the T/C reads like this: under setting [7], 91 % of control; (endpoint: median survival time, dose: 50.0 mg/kg/injection, schedule: Q04DX003 (ip), vehicle: saline with Tween-80) 100 % of control; under setting [8], 100 % of control and 91 % of control; under setting [9], 95 % of control; under setting [10], 91 % of control and 100 % of control; under setting [11], 109 % of control and 95 % of control. The T/C reads like this: under setting [12], 91 % of control; (endpoint: median survival time, dose: 400.0 mg/kg/injection, schedule: Q04DX003 (ip), vehicle: saline with Tween-80) 100 % of control.

For `COC(=O)N1Cc2cc3ccccc3nc2C1C` (stereo not given), the T/C by setting is: under setting [13], 101 % of control; under setting [14], 104 % of control; under setting [15], 109 % of control.

`C=CC(c1ccccc1)c1cc2c(cc1OC)OCO2` (stereo not given): the T/C runs as follows: (endpoint: median survival time, dose: 50.0 mg/kg/injection, schedule: Q01DX005 (ip), vehicle: saline with Tween-80) 105 % of control; (endpoint: median survival time, dose: 100.0 mg/kg/injection, schedule: Q01DX005 (ip), vehicle: saline with Tween-80) 96 % of control; (endpoint: median survival time, dose: 200.0 mg/kg/injection, schedule: Q01DX005 (ip), vehicle: saline with Tween-80) 100 % of control.

With `Cc1csc(NC(=S)NC(=O)c2ccccc2)n1`, the T/C by setting is: under setting [9], 91 % of control; under setting [11], 90 % of control.

On to `C=CCCC(=O)CCCC(=O)O[C@@H]1[C@@H]2[C@H](CC1(C)C)[C@H](O)[C@@]13O[C@@H]1[C@H](O)[C@@]1(CO1)[C@@]23C`, for which the T/C runs as follows: (endpoint: median survival time, dose: 6.2 micrograms/kg/injection, schedule: Q01DX009 (ip), vehicle: saline + alcohol) 98 % of control; (endpoint: median survival time, dose: 6.3 micrograms/kg/injection, schedule: Q01DX009 (ip), vehicle: Klucel (hydroxypropylcellulose) (HPC)) 110 % of control; (endpoint: median survival time, dose: 12.5 micrograms/kg/injection, schedule: Q01DX009 (ip), vehicle: Klucel (hydroxypropylcellulose) (HPC)) 110 % of control; (endpoint: median survival time, dose: 12.5 micrograms/kg/injection, schedule: Q01DX009 (ip), vehicle: saline + alcohol) 101 % of control; (endpoint: median survival time, dose: 25.0 micrograms/kg/injection, schedule: Q01DX005 (ip), vehicle: Klucel (hydroxypropylcellulose) (HPC)) 100 % of control; (endpoint: median survival time, dose: 25.0 micrograms/kg/injection, schedule: Q01DX009 (ip), vehicle: Klucel (hydroxypropylcellulose) (HPC)) 100 % of control. For the same compound, the T/C reads like this: (endpoint: median survival time, dose: 25.0 micrograms/kg/injection, schedule: Q01DX009 (ip), vehicle: saline + alcohol) 98 % of control; (endpoint: median survival time, dose: 50.0 micrograms/kg/injection, schedule: Q01DX005 (ip), vehicle: Klucel (hydroxypropylcellulose) (HPC)) 101 % of control; (endpoint: median survival time, dose: 50.0 micrograms/kg/injection, schedule: Q01DX009 (ip), vehicle: Klucel (hydroxypropylcellulose) (HPC)) 98 % of control; (endpoint: median survival time, dose: 50.0 micrograms/kg/injection, schedule: Q01DX009 (ip), vehicle: saline + alcohol) 97 % of control; (endpoint: median survival time, dose: 100.0 micrograms/kg/injection, schedule: Q01DX005 (ip), vehicle: Klucel (hydroxypropylcellulose) (HPC)) 99 % of control; (endpoint: median survival time, dose: 200.0 micrograms/kg/injection, schedule: Q01DX005 (ip), vehicle: Klucel (hydroxypropylcellulose) (HPC)) 100 % of control. Besides, the T/C (endpoint: median survival time, dose: 400.0 micrograms/kg/injection, schedule: Q01DX005 (ip), vehicle: Klucel (hydroxypropylcellulose) (HPC)) is 111 % of control.

Take `COc1cc2ccc3c4cc(OC)c(OC)cc4c[n+](C)c3c2cc1O`: the T/C was 117 % of control (endpoint: median survival time, dose: 50.0 mg/kg/injection, schedule: Q04DX009 (ip), vehicle: Klucel (hydroxypropylcellulose) (HPC)) and 122 % of control (endpoint: median survival time, dose: 100.0 mg/kg/injection, schedule: Q04DX009 (ip), vehicle: Klucel (hydroxypropylcellulose) (HPC)).

Turning to `c1ccc(CC(Nc2cccnc2)c2ccccc2)cc1` (stereo not given), the T/C runs as follows: under setting [13], 98 % of control; under setting [14], 104 % of control; under setting [15], 101 % of control.

Take `S=C(Cl)Sc1ccc(-c2ccc(SC(=S)Cl)cc2)cc1`: the T/C is, setting by setting: under setting [1], 88 % of control; under setting [2], 88 % of control; under setting [3], 87 % of control.

With `CC(=O)CC1(O)CCCC1`, the T/C by setting is: under setting [4], 98 % of control; under setting [5], 105 % of control; under setting [6], 100 % of control.

As for `C/C(=N\NC(=S)N1CCN(Cc2ccccc2)CC1)c1ccccn1`, the T/C (endpoint: median survival time, dose: 3.13 mg/kg/injection, schedule: Q01DX005 (ip), vehicle: saline with Tween-80) was 118 % of control and the T/C (endpoint: median survival time, dose: 12.5 mg/kg/injection, schedule: Q01DX005 (ip), vehicle: saline with Tween-80) was 152 % of control.

As for `O=C(c1ccccc1)C1(c2ccccc2)CCCCC1`, the T/C is 94 % of control (endpoint: median survival time, dose: 60.0 mg/kg/injection, schedule: Q01DX005 (ip), vehicle: saline with Tween-80); 94 % of control (endpoint: median survival time, dose: 120.0 mg/kg/injection, schedule: Q01DX005 (ip), vehicle: saline with Tween-80); 86 % of control (endpoint: median survival time, dose: 240.0 mg/kg/injection, schedule: Q01DX005 (ip), vehicle: saline with Tween-80).

Regarding `O=c1c2[nH]c3ccccc3sc=2c(=O)c2ccccc12`, the T/C is 90 % of control under setting [7], 91 % of control under setting [8] and 106 % of control under setting [10].

Consider `COC(=O)C(=O)c1ccccc1`, for which the T/C under setting [7] was 107 % of control, the T/C under setting [8] was 101 % of control, the T/C under setting [10] was 99 % of control and the T/C under setting [12] was 99 % of control.
